From ChEMBL document CHEMBL3758145, “Synthesis of 3-acyloxyxanthone derivatives as α-glucosidase inhibitors: A further insight into the 3-substituents' effect” (Bioorg Med Chem, 2016)

Tests used:
Parameters in all cases: species or system Saccharomyces cerevisiae
[1] = Inhibition of yeast alpha-glucosidase using PNP glycoside as substrate preincubated for 30 mins followed by substrate addition measured for 60 secs by spectrophotometric analysis
[2] = Non-competitive inhibition of yeast alpha-glucosidase using PNP glycoside as substrate assessed as enzyme-inhibitor complex preincubated for 30 mins followed by substrate addition measured for 60 secs by Lineweaver-Burk plot analysis
[3] = Non-competitive inhibition of yeast alpha-glucosidase using PNP glycoside as substrate assessed as enzyme-substrate-inhibitor complex preincubated for 30 mins followed by substrate addition measured for 60 secs by Lineweaver-Burk plot analysis

O=C(Oc1cc(O)c2c(=O)c3ccccc3oc2c1)c1ccccc1F
IC50 [1]: 31.6 µM

O=C(Oc1cc(O)c2c(=O)c3ccccc3oc2c1)c1cccc(Br)c1
Ki [2]: 18 µM
Ki [3]: 17.4 µM
IC50 [1]: 11.6 µM

O=C(Oc1cc(O)c2c(=O)c3ccccc3oc2c1)c1ccccc1
IC50 [1]: 36.1 µM

CC(C)(C)[Si](C)(C)Oc1ccc(C(=O)Oc2cc(O)c3c(=O)c4ccccc4oc3c2)cc1
Ki [2]: 13.3 µM
Ki [3]: 12.1 µM
IC50 [1]: 10.6 µM

O=C(Oc1cc(O)c2c(=O)c3ccccc3oc2c1)c1cccnc1
IC50 [1]: 42.6 µM

O=C(Oc1cc(O)c2c(=O)c3ccccc3oc2c1)c1ccncc1
IC50 [1]: 23.7 µM

O=C(Oc1cc(O)c2c(=O)c3ccccc3oc2c1)c1ccc2ccccc2c1
IC50 [1]: 30.6 µM

O=C(Oc1cc(O)c2c(=O)c3ccccc3oc2c1)c1ccc(O)cc1
Ki [2]: 17.8 µM
Ki [3]: 15.5 µM
IC50 [1]: 13.3 µM

O=C(/C=C/c1ccccc1)Oc1cc(O)c2c(=O)c3ccccc3oc2c1
IC50 [1]: 46.7 µM

COc1ccc(C(=O)Oc2cc(O)c3c(=O)c4ccccc4oc3c2)cc1
IC50 [1]: 23.2 µM

COc1cc(C(=O)Oc2cc(O)c3c(=O)c4ccccc4oc3c2)cc(OC)c1OC
IC50 [1]: 58.2 µM

O=C(Oc1cc(O)c2c(=O)c3ccccc3oc2c1)c1ccccn1
IC50 [1]: 42 µM

CNc1ccc(C(=O)Oc2cc(O)c3c(=O)c4ccccc4oc3c2)cc1
IC50 [1]: 19.8 µM

Cc1ccc(C(=O)Oc2cc(O)c3c(=O)c4ccccc4oc3c2)cc1
IC50 [1]: 106 µM

O=C(Oc1cc(O)c2c(=O)c3ccccc3oc2c1)c1ccccc1Cl
IC50 [1]: 21.8 µM

O=C(Oc1cc(O)c2c(=O)c3ccccc3oc2c1)c1cccc2ccccc12
IC50 [1]: 21.6 µM

O=c1c2ccccc2oc2cc(O)cc(O)c12
IC50 [1]: 145 µM

OC[C@H]1NC[C@H](O)[C@@H](O)[C@@H]1O [DUVOGLUSTAT]
IC50 [1]: 40 µM
